According to patent US9078805B2, “Method for producing a drug delivery system on the basis of polyelectrolyte complexes” (LEIBNIZ-INSTITUT FUER POLYMER-FORSCHUNG DRESDEN E.V., priority 2010, dated 2015):

Test: Release of the bisphosphonate and stability of the PEC carrier layer on a germanium model substrate, measured via spectroscopic methods
Format: physicochemical
Settings: after 1 minute; layer applied and dried on the same germanium model substrate
Experimental: 50 microliter of this drug-loaded PEC dispersion was brushed onto an inorganic planar model substrate of germanium and dried in the drying oven at 50° C. The measurement of the release of the bisphosphonate and the stability of the PEC carrier layer was carried out via spectroscopic methods. After 24 hours a relative reduction of the bisphosphonate content of the PEC/drug layer of approximately 50% resulted. […] For a layer of the pure bisphosphonate applied and dried on the same model substrate as in the case of PEC/drug, after 1 minute an immediate detachment and thus a relative reduction of the bisphosphonate content of approximately 100% resulted.

NCCC(O)(P(=O)(O)O)P(=O)(O)O [pure bisphosphonate, pamidronate]
relative reduction of the bisphosphonate content (immediate detachment): approximately 100%
